Reference: US20150119317A1, “ORAL SOLID DOSAGE FORMULATION OF 1,1-DIMETHYLETHYL [(1S)-1-CARBAMOYL)PYRROLIDIN-1-YL]CARBONYL}-2,2-DIMETHYLPROPYL]CARBAMATE” (BRISTOL-MYERS SQUIBB COMPANY, priority 2012, published 2015)

Assay: Bioequivalence study: PK of wet and dry granulated tablets in a dog model
Format: in vivo
Conditions: fed state with 50 ml high-fat meal substitute
Procedure: A study was conducted to compare conventional tablet dosage forms. The goal of the study was to assess the in vivo performance of various prototypes of conventional tablet dosage forms (wet and dry granulated tablets) in a dog model.
The following five formulations were tested: […]
1. Phase 2 Clinical (dry granulated (DG)) tablet 2×200 mg.
2. Wet granulated (WG) Vitamin E TPGS/poloxamer tablet: 50% w/w Compound I+4.67% w/w Vitamin E TPGS+4% w/w poloxamer+14.33% w/w microcrystalline cellulose+15% lactose monohydrate+11.5% w/w croscarmellose sodium+0.5% w/w magnesium stearate; 2×200 mg (Corresponds to the formulation shown above in Table 1).
3. WG poloxamer tablet: 50% w/w Compound I+2% w/w polyvinyl pyrrolidone+4% w/w poloxamer+16% microcrystalline cellulose+16% w/w lactose monohydrate+11.5% w/w croscarmellose sodium+0.5% w/w magnesium stearate; 2×200 mg (Corresponds to the formulation shown above in Table 5).
4. Amorphous API tablet: 50% w/w Compound I+41.25% w/w microcrystalline cellulose+5% w/w croscarmellose sodium+2% w/w silicon dioxide+1% w/w sodium lauryl sulphate+0.75% w/w magnesium stearate; 2×200 mg.
5. Solution Formulation: Polyethylene glycol 400:EtOH: polysorbate 80 (50:35:15), 20 mg/mL.
The protocol used was as follows:
[…] For food-effect studies in the fed state, dogs were given 50 ml high-fat meal substitute instead of water.

For `C=C[C@@H]1C[C@]1(NC(=O)[C@@H]1C[C@@H](Oc2ncc(OC)c3ccc(Cl)cc23)CN1C(=O)[C@@H](NC(=O)OC(C)(C)C)C(C)(C)C)C(=O)NS(=O)(=O)C1CC1` [Compound I, 1,1-dimethylethyl[(1S)-1-{[(2S,4R)-4-(7-chloro-4methoxyisoquinolin-1-yloxy)-2-({(1R,2S)-1-[(cyclopropylsulfonyl)carbamoyl]-2-ethenylcyclopropyl}carbamoyl)pyrrolidin-1-yl]carbonyl}-2,2-dimethylpropyl]carbamate], the food effect was “significant positive food effect”.
